In PubChem BioAssay AID1985 (Southern Research Specialized Biocontainment Screening …, 2009):

System: S. Typhi PhoP-promoter GFP reporter, fluorescence, 4 h
Assay: PhoP regulon inhibitor project modified counter assay, GFP fluorescence readout, dose response (AID 1985)

SMILES	IC50 [µM]
O=C(CNC(=O)c1ccccc1)N/N=C/c1ccc([N+](=O)[O-])s1	19.5
CNCc1c(OCc2ccccc2F)ccc2ccccc12	127
CN(C)CC/C=C1/c2cc(F)ccc2Sc2ccc(Cl)cc21	84.9
OC(CNCCc1ccccc1)COc1ccc(OCC(O)CNCCc2ccccc2)cc1 (centres undefined)	21.2
CC(NCc1ccccc1O)C12CC3CC(CC(C3)C1)C2 (centres undefined)	81.4
OC(CNCCc1ccc(Cl)cc1Cl)COc1ccccc1 (centres undefined)	71.7
Oc1ccc(C[C@H]2CNCCN2CCCCC2CCCCC2)cc1	81.7
Cc1c(N=Cc2cc(Br)cc(Br)c2O)cccc1C(=O)O	77.5
CC(NCC(O)COc1ccc2ccccc2c1)c1ccccc1 (centres undefined)	132
COc1ccc(/C=N/Nc2cc(C)nc3c(C)cccc23)cc1	37.2
Cc1ccc2c(c1)sc(-c1ccc(N(C)C)cc1)[n+]2C	23.6
Cn1c(-c2ccc3c(c2)OCO3)cnc1NCc1ccc(Cl)cc1	140
COc1c(N2CCNC(C)C2)c(F)cc2c(=O)c(C(=O)O)cn(C3CC3)c12 (centres undefined)	< 0.23
CCc1ccc(NC(=O)C[n+]2cc(-c3ccc(C)cc3)n3c2CCC3)cc1	69.8
CCCCCC(CC(=O)NO)C(=O)NC(C(=O)N1CCCC1CO)C(C)C (centres undefined)	13.7
Nc1[nH]ncc1-c1ccccc1	31.9
CNC[C@H](Cc1ccccc1)NC[C@@H](Cc1cccc2ccccc12)NCCc1ccc(C)cc1	19.6
N/C(=N\OS(=O)(=O)c1ccc2ccccc2c1)c1cccnc1	14.2
CC(C)C1N=C(c2ccc3c(c2)OCO3)CC(c2ccccc2O)N1 (centres undefined)	121
CCN(CCNCC(O)COc1ccccc1C(C)C)c1cccc(C)c1 (centres undefined)	72.6
CN(C)[C@@H]1C(=O)C(C(N)=O)=C(O)[C@@]2(O)C(=O)C3=C(O)c4c(O)cccc4[C@@](C)(O)C3[C@H](O)C12 (some centres undefined)	2.99
CCOc1cccc(CNCCc2c(C)[nH]c3ccc(OC(F)(F)F)cc23)c1O	76.2
CC(C)(c1ccccc1)c1ccc(OCCCNCCO)cc1	93.5
O=C(NC(CO)C(O)c1ccc([N+](=O)[O-])cc1)C(Cl)Cl (centres undefined)	2.55
CCOc1ccc(Nc2nc(NCC3CCCO3)c3ccccc3n2)cc1 (centres undefined)	14.2
O=C(CSc1ccccn1)Nc1nonc1[N+](=O)[O-]	43.5
CC1CCC(C(C)C)C(OC(=O)Cn2c(-c3ccc(Cl)cc3)[n+](C)c3ccccc32)C1 (centres undefined)	144

SMILES	IC50 [µM]
C1=C(CCNCc2ccccc2)CCCC1	8.38
O=C(N/N=C/c1cc([N+](=O)[O-])ccc1O)C(O)(c1ccccc1)c1ccccc1	60.4
CCCCCCCCCCOC(=O)Cn1c(COc2cccc(C)c2)[n+](C)c2ccccc21	15.9
COc1ccc(NC(=O)c2[nH]ncc2[N+](=O)[O-])cc1	40.3
CN(Cc1ccccc1)CC(O)COc1ccc(CNCc2ccc(Cl)s2)cc1 (centres undefined)	39.1
OC(CNCCc1ccc(C(F)(F)F)cc1)COC(c1ccccc1)c1ccccc1 (centres undefined)	82.9
COc1ccc(Cc2nnc(N/N=C/c3ccc(O)cc3)[nH]c2=O)cc1OC	54.8
Cc1ccc(Nc2c3c(nc4ccccc24)CCC3)cc1	39.8
C[C@H]1COc2c(C3(N)CC3)c(F)cc3c(=O)c(C(=O)O)cn1c23	< 0.23
c1ccc(Nc2nc(NCc3ccco3)c3ccccc3n2)cc1	24
Cc1ccc(Nc2nc(N)c3ccccc3n2)cc1Cl	68.5
C#CCOCCOCCOCCNc1nc(N2CCN(C(=O)[C@H](CCCCN)n3cc([C@@H](N)CC(C)C)nn3)CC2)nc(N2CCN(C(=O)[C@H](Cc3cc4ccccc4[nH]3)n3cc([C@@H](N)Cc4ccc(O)cc4)nn3)CC2)n1	54.5
COc1cccc(Nc2nc(NCCO)c3ccccc3n2)c1	84.5
O=C(Nc1nonc1NC(=O)c1cccs1)c1cccs1	100
C=CCn1c(NS(=O)(=O)c2ccccc2)c(S(=O)(=O)c2ccc(C)cc2)c2nc3ccccc3nc21	135
Cc1ccc(NC(=S)Nc2ccc(S(=O)(=O)Nc3ncccn3)cc2)cc1Cl	101
Cc1ccc(C(=O)N/C(=C\c2ccc(-c3ccc(Cl)cc3)o2)C(=O)NCCCN(C)C)cc1	85.8
Cc1cccc2sc(N(CCCN(C)C)C(=O)COc3ccc(Cl)cc3)nc12	79
NC1=NC[C@@H](Cc2ccc(O)cc2)N1CCc1cc(C(F)(F)F)cc(C(F)(F)F)c1	106
Nc1nc2ccccc2n1Cc1ccc(Cl)c(Cl)c1	54.6
NC(=O)SCC(=O)Nc1ccc(Cl)cc1	45.1
CC[N+](C)(CC)CCC[n+]1c(-c2ccccc2)c2cc(N)ccc2c2ccc(N)cc21	53.4
O=C(NC(=S)NNC(=O)c1cnccn1)c1ccc(F)cc1	25.1
Cc1nc2c(=O)n(C)c(=O)nc-2n(C)n1	0.781
CC1=NN(c2nc3ccccc3[nH]2)C(=O)C1Cc1ccccc1 (centres undefined)	36.5
CN1C(=O)NC(c2ccc(O)cc2)C(C(=O)c2cccs2)C1(O)C(F)(F)F (centres undefined)	19.9
O/N=C/c1ccc(OCc2ccccc2)c(Cl)c1	130
